In general, IC50 refers to the concentration that gives 50% inhibition.

Read-outs that look alike come from different tables or passages of the source.

For one experiment, the target named is Endothelial lipase (EL) (Homo sapiens (Human), UniProt Q9Y5X9). As to the kind of experiment: EL assay: endothelial lipase activity with fluorescent substrate A10070 in DMPG vesicles. The experiment is classed as biochemical. On the procedure:
(§1) Endothelial lipase (EL) and hepatic lipase (HL) activities were measured using a fluorescent substrate, A10070, (Invitrogen, CA) doped into an artificial vesicle containing DMPG (Avanti Polar Lipids) as the excipient. Vesicles were prepared by combining 571 μL of 29 mM DMPG in a 1:1 mixture of MeOH and CHCl3 with 2000 μL of 1 mM A10070 in a 1:1 mixture of MeOH and CHCl3. The mixture was dried under nitrogen in multiple vials then resuspended in 20 mL total volume of 50 mM HEPES pH 8.0 buffer containing 50 mM NaCl and 0.2 mM EDTA. The sample was allowed to sit at room temperature for 15 min and then was sonicated 3×4 mins on ice with a Branson Sonicator using duty cycle 1. This preparation provides vesicles with a mole fraction of 0.11 for the FRET substrate.
(§2) The enzymatic assay was measured using 384-well white Optiplates. Each well contained 20 μL of assay buffer (50 mM HEPES pH 8.0, 50 mM NaCl and 1 mM CaCl2) and 0.25 μL of a DMSO solution containing a compound of interest. EL or HL (10 μL) was added and allowed to incubate with the compound for 30 min at 37° C. The source of EL was conditioned media obtained from HT-1080 cells that were transformed using RAGE technology (Athersys) to overexpress endogenous EL, and HL was partially purified from conditioned media obtained from COS cells overexpressing HL. The reaction was started by the addition of 10 μL of a 1:10 dilution of vesicles. The final total reaction volume was […]. The reaction rates were measured on a Gemini plate reader with an excitation wavelength of 490 nm and an emission wavelength of 530 nm. Readings were taken over a period of 60 minutes, and the slope between 300 and 900 secs of the readout was used to calculate the rate of the reaction.

The target in a further experiment is hepatic lipase (HL) (Homo sapiens (Human), UniProt P11150). As to the kind of experiment: HL assay: hepatic lipase activity with fluorescent substrate A10070 in DMPG vesicles. The experiment is classed as biochemical. How it is done:
as §1, §2

Setting [1] is: EL from conditioned media of HT-1080 cells, 30 min incubation with compound at 37° C., A10070/DMPG vesicles.

Chain of hepatic lipase (HL) (P11150 23-499, species assumed): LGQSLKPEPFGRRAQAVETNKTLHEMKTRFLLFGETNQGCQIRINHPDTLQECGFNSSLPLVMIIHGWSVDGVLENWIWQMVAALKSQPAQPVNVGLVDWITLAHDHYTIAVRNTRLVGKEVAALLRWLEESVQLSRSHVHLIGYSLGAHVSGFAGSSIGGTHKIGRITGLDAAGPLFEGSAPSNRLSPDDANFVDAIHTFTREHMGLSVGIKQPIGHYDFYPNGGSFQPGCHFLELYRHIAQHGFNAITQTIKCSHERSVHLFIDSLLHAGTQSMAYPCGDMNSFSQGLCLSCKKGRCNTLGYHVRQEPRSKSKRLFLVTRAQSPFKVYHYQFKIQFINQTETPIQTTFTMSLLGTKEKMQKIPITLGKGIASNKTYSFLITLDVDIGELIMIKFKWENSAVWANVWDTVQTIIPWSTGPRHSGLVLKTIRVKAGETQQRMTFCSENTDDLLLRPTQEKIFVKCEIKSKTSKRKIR
Chain of Endothelial lipase (EL) (Q9Y5X9 21-500): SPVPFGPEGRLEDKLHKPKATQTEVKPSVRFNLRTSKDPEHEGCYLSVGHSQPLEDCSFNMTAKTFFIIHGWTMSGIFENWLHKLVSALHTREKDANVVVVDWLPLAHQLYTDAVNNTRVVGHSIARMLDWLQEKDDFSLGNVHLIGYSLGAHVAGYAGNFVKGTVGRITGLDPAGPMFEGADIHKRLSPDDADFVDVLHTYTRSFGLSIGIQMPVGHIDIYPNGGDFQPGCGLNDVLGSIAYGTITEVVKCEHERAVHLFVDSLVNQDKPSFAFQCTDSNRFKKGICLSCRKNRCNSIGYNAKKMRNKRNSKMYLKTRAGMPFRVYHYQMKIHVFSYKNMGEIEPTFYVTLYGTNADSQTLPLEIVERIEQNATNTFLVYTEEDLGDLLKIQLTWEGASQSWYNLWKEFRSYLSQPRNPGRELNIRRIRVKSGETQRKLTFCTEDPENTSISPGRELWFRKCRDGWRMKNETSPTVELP

In the case of “2-[6-(2-fluorophenyl)-1,3- benzothiazol-2-yl]-N-(2- sulfamoylethyl)-2-(3,3,3- trifluoropropanesulfonyl)a- cetamide [Example B307]”, the IC50 is 0.003 µM against Endothelial lipase (EL) and 0.0015 µM on hepatic lipase (HL).
The corresponding values for “2-[6-(3-fluoro-2-hydroxy- pyridin-4-yl)-1,3- benzothiazol-2-yl]-N-(2- sulfamoylethyl)-2-{[4- (trifluoromethoxy)phen- yl]methanesulfonyl}a- cetamide [Example B376]” are 0.0071 µM and 4.7 µM.
As to `CS(=O)(=O)CCNC(=O)C(c1nc2ccc(-c3ccnc(F)c3)cc2s1)S(C)(=O)=O` (stereo not shown) [Example B23, 2-(6-(2-Fluoro-4-pyridinyl)-1,3-benzothiazol-2-yl)-2-(methylsulfonyl)-N-(2-(methylsulfonyl)ethyl)acetamide], the IC50 on Endothelial lipase (EL) (setting [1]) came out at 0.21 µM.
With `CS(=O)(=O)C(C(=O)NCCS(=O)(=O)Nc1ccccc1)c1nc2ccc(-c3ccnc(F)c3)cc2s1` (stereo not shown) [Example B24, 2-(6-(2-fluoro-4-pyridinyl)-1,3-benzothiazol-2-yl)-2-(methylsulfonyl)-N-(2-(phenylsulfamoyl)ethyl)acetamide], the IC50 on Endothelial lipase (EL) (setting [1]) stood at 0.035 µM.
For the molecule `NS(=O)(=O)CCNC(=O)C(c1nc2c(F)cc(-c3ccccc3)cc2s1)S(=O)(=O)CCC(F)(F)F` (stereo not shown) [Example B26, 2-(4-Fluoro-6-phenylbenzo[d]thiazol-2-yl)-N-(2-sulfamoylethyl)-2-((3,3,3-trifluoropropyl)sulfonyl)acetamide], on Endothelial lipase (EL) (setting [1]), the 50% inhibitory concentration (IC50) was under 0.01 µM.
Take `NC(=O)c1ccc(-c2cc3sc(C(C(=O)N[C@@H]4CCNC4=O)S(=O)(=O)Cc4ccccc4)nc3cc2F)cc1` (stereo partly drawn) [Example B27, 4-(2-(1-(benzylsulfonyl)-2-oxo-2-(((3R)-2-oxo-3-pyrrolidinyl)amino)ethyl)-5-fluoro-1,3-benzothiazol-6-yl)benzamide]: the IC50 on Endothelial lipase (EL) (setting [1]) was determined as 0.093 µM.
Turning to `Cc1nnc(CNC(=O)C(c2nc3cc(C)c(-c4ccccc4)cc3s2)S(=O)(=O)Cc2ccccc2)o1` (stereo not shown) [Example B28, 2-(benzylsulfonyl)-N-((5-methyl-1,3,4-oxadiazol-2-yl)methyl)-2-(5-methyl-6-phenyl-1,3-benzothiazol-2-yl)acetamide], on Endothelial lipase (EL) (setting [1]), the IC50 came out at 0.012 µM.
In the case of `CS(=O)(=O)C(C(=O)NCCS(=O)(=O)NCC(F)(F)F)c1nc2ccc(-c3ccnc(F)c3)cc2s1` (stereo not shown) [Example B30, 2-(6-(2-Fluoro-4-pyridinyl)-1,3-benzothiazol-2-yl)-2-(methylsulfonyl)-N-(2-((2,2,2-trifluoroethyl)sulfamoyl)ethyl)acetamide], the half-inhibitory concentration (IC50) at Endothelial lipase (EL) (setting [1]) turned out to be 0.277 µM.
As to `CC(C)(C)NC(=O)c1ccc(-c2ccc3nc(C(C(=O)NCCS(N)(=O)=O)S(C)(=O)=O)sc3c2)cc1` (stereo not shown) [Example B31, N-tert-Butyl-4-(2-(1-(methylsulfonyl)-2-oxo-2-((2-sulfamoylethyl)amino)ethyl)-1,3-benzothiazol-6-yl)benzamide], the 50% inhibitory concentration (IC50) at Endothelial lipase (EL) (setting [1]) is under 0.01 µM; at hepatic lipase (HL) (HL partially purified from conditioned media of COS cells, 30 min incubation with compound at 37° C., A10070/DMPG vesicles) it was 0.257 µM.
`CS(=O)(=O)C(C(=O)NCCS(N)(=O)=O)c1nc2ccc(-c3ccc(C(=O)N4CCOCC4)c(Cl)c3)cc2s1` (stereo not shown) [Example B32, 2-(6-(3-chloro-4-(4-morpholinylcarbonyl)phenyl)-1,3-benzothiazol-2-yl)-2-(methylsulfonyl)-N-(2-sulfamoylethyl)acetamide]: the concentration for half-maximal inhibition (IC50) was under 0.01 µM against Endothelial lipase (EL) and 0.923 µM at hepatic lipase (HL).
As for `C=CCC(C(=O)NCCS(N)(=O)=O)c1nc2ccc(-c3ccccc3)cc2s1` (stereo not shown) [Reference 1, 2-(6-Phenyl-1,3-benzothiazol-2-yl)-N-(2-sulfamoylethyl)-4-pentenamide, reference compound], the half-maximal inhibitory concentration (IC50) against Endothelial lipase (EL) was determined as 9.4 µM.
`CC(C)c1cc(CNC(=O)C(C)(C)c2nc3ccc(-c4ccccc4)cc3s2)on1` [Reference 2, N-((3-isopropylisoxazol-5-yl)methyl)-2-methyl-2-(6-phenylbenzo[d]thiazol-2-yl)propanamide, reference compound]: the half-inhibitory concentration (IC50) on Endothelial lipase (EL) (setting [1]) was over 62 µM.

These data come from patent publication US8987314B2, “Amide, urea or sulfone amide linked benzothiazole inhibitors of endothelial lipase” (Bristol-Myers Squibb Company, priority 2012, dated 2015).
